Reference: patent US20240254115A1 (ACONDICIONAMIENTO TARRASENSE, priority 2021, published 2024)
pKi: −log10 of the molar value.

Assays:
human σ1 receptor = target: T1, human σ1 receptor (Homo sapiens, UniProt Q99720); assay: Human σ1 receptor radioligand assay; details: transfected HEK-293 membranes, 5 nM [3H](+)-pentazocine, 37° C. 120 minutes; + may also stand for 1-50% inhibition at 1 or 10 μM; read-out: Binding σ-1 Ki
T1 construct: expressed in transfected cells; host or cells: HEK-293
In short: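 Ki was derived from five test concentrations, or % inhibition was measured at a single 1 or 10 μM dose, against 5 nM [3H](+)-pentazocine. Incubation was 120 min at 37° C in 50 mM Tris-HCl pH 8 with 7 μg HEK-293 membranes, and 10 μM haloperidol set non-specific binding. Bound radioactivity was counted after filtration.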

human σ2/TMEM97 receptor = target: T2, human σ2/TMEM97 receptor (Homo sapiens, UniProt Q5BJF2); assay: Binding assay to human σ2/TMEM97 receptor; details: transfected HEK-293 membranes, 10 nM [3H]-DTG, 25° C. 120 minutes; + may also stand for 1-50% inhibition at 1 or 10 μM; read-out: Binding σ-2 Ki
T2 construct: expressed in transfected cells; host or cells: HEK-293
In short: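 Membranes from transfected HEK-293 cells (15 µg) were incubated with 10 nM [3H]-DTG in 50 mM Tris-HCl pH 8.0 for 120 min at 25 °C, with 10 µM haloperidol defining non-specific binding. Filtration and scintillation counting followed. Compounds tested as % inhibition at 1 or 10 µM, or at five concentrations for Ki.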

sigma-2 (σ2) site = sigma-2 (σ2) site (Homo sapiens, UniProt Q5BJF2); details: background statement; cited from earlier work
[1] = system: spared nerve injury (SNI) mice; details: SNI mice model of neuropathic pain; cited from earlier work

T2 sequence (Q5BJF2 whole entry): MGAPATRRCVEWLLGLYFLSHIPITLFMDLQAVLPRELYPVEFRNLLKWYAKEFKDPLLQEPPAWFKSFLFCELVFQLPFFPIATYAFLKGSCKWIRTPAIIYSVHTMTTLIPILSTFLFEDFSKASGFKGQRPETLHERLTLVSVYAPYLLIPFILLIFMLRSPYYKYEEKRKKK
sigma-2 (σ2) site, sequence (Q5BJF2 whole entry): as above
T1 sequence (Q99720 whole entry): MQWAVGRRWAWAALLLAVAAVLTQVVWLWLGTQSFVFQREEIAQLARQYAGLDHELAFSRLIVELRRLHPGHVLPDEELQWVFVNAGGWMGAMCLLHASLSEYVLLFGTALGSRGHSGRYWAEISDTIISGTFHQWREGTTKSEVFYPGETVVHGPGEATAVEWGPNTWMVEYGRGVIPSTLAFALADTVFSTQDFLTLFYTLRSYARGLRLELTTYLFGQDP

CN(CC1CCOCC1)[C@H]1CC[C@H](NS(=O)(=O)c2ccc(N3CCC4(CCOC4)CC3)nc2)CC1 [Example 183, N-((1r,4r)-4-(Methyl((tetrahydro-2H-pyran-4-yl)methyl)amino)cyclohexyl)-6-(2-oxa-8-azaspiro[4.5]decan-8-yl)pyridine-3-sulfonamide]
pKi (human σ1 receptor): 6.00 to 6.30 | pKi (human σ2/TMEM97 receptor): 6.00 to 6.30

(+)-SKF-10047
affinity for the sigma-2 (σ2) site (sigma-2 (σ2) site): micromolar affinity

UKH-1114
mechanical hypersensitivity [1]: relieved mechanical hypersensitivity
